Columns and labels:
[1] = biological target: T1, catalytic domain of human Bub1 (amino acids 704-1085) (Homo sapiens, UniProt O43683); assay: Bub1 kinase assay (TR-FRET); assay type: biochemical; conditions: 10 μM ATP, 60 min reaction, pH 7.5; read-out: Biological Assay 1: Bub1 kinase assay median IC50
T1 construct: catalytic domain of human Bub1 (amino acids 704-1085); His6 (N); made in house; host or cells: Hi5 insect cells

[2] = tested on: Bub1 kinase (pre-induced phospho-histone 2A); assay: H2A Abrogation-Assay (cell-based mechanistic assay, pre-treatment with Nocodazole); conditions: Nocodazole 1 μg/ml 16 h, then test compound 1 h; read-out: Biological Assay 4.2: H2A Abrogation IC50
[3] = tested on: HeLa human cervical tumor cells; assay: Proliferation assay (HeLa cell line); assay type: cell-based; conditions: 96 h, 4 days incubation, crystal violet, read-out: Biological Assay 2: Proliferation assay (HeLa cell line) median IC50
[4] = tested on: HeLa human cervical tumor cells; assay: Proliferation Assay (HeLa+Paclitaxel); assay type: cell-based; conditions: 3 nM paclitaxel, test substance 92 hours; read-out: Biological Assay 3: Proliferation Assay (HeLa + Paclitaxel) IC50

T1 sequence (O43683 704-1085): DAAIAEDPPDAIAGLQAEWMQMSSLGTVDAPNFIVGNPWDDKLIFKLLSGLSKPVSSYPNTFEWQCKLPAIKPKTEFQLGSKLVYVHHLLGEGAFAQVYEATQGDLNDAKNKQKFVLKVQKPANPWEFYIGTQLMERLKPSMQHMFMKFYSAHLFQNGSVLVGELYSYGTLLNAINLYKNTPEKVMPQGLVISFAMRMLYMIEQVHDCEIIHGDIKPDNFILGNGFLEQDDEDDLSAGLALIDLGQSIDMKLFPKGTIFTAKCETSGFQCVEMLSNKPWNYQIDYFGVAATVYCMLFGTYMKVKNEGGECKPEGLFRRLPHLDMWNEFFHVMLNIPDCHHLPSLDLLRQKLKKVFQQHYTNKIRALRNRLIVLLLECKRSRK

Structure (SMILES)	IC50 [1]	IC50 [2]	IC50 [3]	IC50 [4]
COc1cnc(-c2nn(Cc3c(F)cc(OCCO)cc3F)c3ccccc23)nc1Nc1ccnc(C)c1 [Example 2-1-2, 2-{3,5-difluoro-4-[(3-{5-methoxy-4-[(2-methylpyridin-4-yl)amino]pyrimidin-2-yl}-1H-indazol-1-yl)methyl]phenoxy}ethanol]	24 nM	11 nM	1300 nM	350 nM
COc1cnccc1Nc1nc(-c2nn(Cc3c(F)cc(OCCO)cc3F)c3ccccc23)ncc1OC [Example 2-1-3, 2-{3,5-difluoro-4-[(3-{5-methoxy-4-[(3-methoxypyridin-4-yl)amino]pyrimidin-2-yl}-1H-indazol-1-yl)methyl]phenoxy}ethanol]	7.1 nM	29 nM	1700 nM	63 nM

— US10350206B2, “Benzyl substituted indazoles as BUB1 inhibitors” (Bayer Pharma Aktiengesellschaft, priority 2014, dated 2019)
